Data taken from patent publication US20260152501A1, “CYCLIN MODULATOR” (EUBULUS BIOTHERAPEUTICS (HONG KONG) LIMITED, priority 2022, published 2026).
pIC50: −log10 of the molar value. Read-outs that look alike come from different tables or passages of the source.

Experiments:
Assay type in all cases: cell-based
H82 cells = experiment: Cell proliferation experiment, H82 cells; conditions: Homo sapiens, NCI-H82, cultured for 72 hours, Cell Titer-Glo, read-out: Cell antiproliferation data H82
Experimental: (§1) Reagents: RPMI-1640 medium, McCoy's 5A medium, IMDM medium, MEM medium, L-15 medium, fetal bovine serum, Penicillin-Streptomycin double antibody, trypsin, etc., 2-mercaptoethanol, NEAA, pyruvate, etc.
(§2) The test cells were cultured in conventional ways, and the cells should be passed for at least 2 generations before plating.
(§3) 25 μL of 1500 H82 and H69 cells were inoculated in a 384-well plate with black wall and transparent bottom, 25 μL of different concentrations of compounds were added, and the cells were cultured for 72 hours under condition of 37° C. and 5% CO2. The 384-well plate was equilibrated at room temperature, 25 μL of Cell Titer-Glo® reagent was added to each well, and the cells were lysed by shaking on a horizontal shaking shaker for 2 minutes, incubated at room temperature for 10 minutes to stabilize the luminescent signal, and then the chemiluminescent signal was detected using Envision.
(§4) All cells were subjected to IC50 test for corresponding samples. […]
(§5) IC50 was calculated according to the following formula:
(§6) [formula] • wherein, Min, Max and Slope represent the minimum, maximum and slope respectively.

HT-29 cells = experiment: Cell proliferation experiment, HT-29 cells; conditions: Homo sapiens, Cell Titer-Glo, read-out: Cell antiproliferation data HT-29
Experimental: as §1, §2
(§7) 25 μL of 1000 HT-29, N87, SKOV3, Colo-205 and MDA-MB-231 cells were inoculated in a 384-well plate with black wall and transparent bottom, 25 μL of different concentrations of compounds were added, and the cells were cultured overnight under condition of 37° C. and 5% CO2.
as §3
(§8) All cells were subjected to IC50 test for corresponding samples.
(§9) The fluorescence intensity of each well was detected using the Alarm blue method, and EC50 was calculated.
as §5, §6

MDA-MB-231 cells = experiment: Cell proliferation experiment, MDA-MB-231 cells; conditions: Homo sapiens, Cell Titer-Glo, read-out: Cell antiproliferation data MDA-MB-231
Experimental: as §1, §2, §7, §3, §8, §9, §5, §6

H69 cells = experiment: Cell proliferation experiment, H69 cells; conditions: cultured for 72 hours, Cell Titer-Glo, read-out: Cell antiproliferation data H69
Experimental: as §1, §2, §3, §4, §5, §6

Colo-205 cells = experiment: Cell proliferation experiment, Colo-205 cells; conditions: Homo sapiens, COLO 205, Colo-205 cells, Cell Titer-Glo; read-out: Cell antiproliferation data Colo-205
Experimental: as §1, §2, §7, §3, §8, §9, §5, §6

N87 cells = experiment: Cell proliferation experiment, N87 cells; conditions: Cell Titer-Glo, read-out: Cell antiproliferation data N87
Experimental: as §1, §2, §7, §3, §8, §9, §5, §6

SKOV3 cells = experiment: Cell proliferation experiment, SKOV3 cells; conditions: Homo sapiens, SK-OV-3, SKOV3 cells, Cell Titer-Glo; read-out: Cell antiproliferation data SKOV3
Experimental: as §1, §2, §7, §3, §8, §9, §5, §6

Cyclin K = experiment: Immunohistochemistry (IHC) staining of Cyclin K in HepG2 cells; conditions: incubated with compound 2 hours, CCNK antibody
Experimental: Appropriate amount of compounds were added to the cultured cells. The cells were incubated in a tissue culture incubator at 37° C. for 2 hours.
After washing the cultured cells twice with PBS, 100 μL 10% neutral buffered formalin were added and the cells were fixed for 20 minutes.
After washing 3 times with PBS, immunohistochemical staining was performed using CCNK antibody and general two-step detection kit (mouse/rabbit enhanced polymer detection system, PV-9000, Zsbio Inc, Beijing).
Specifically, 100 μL of endogenous peroxidase blocker in the kit was added, cells were incubated at room temperature for 10 minutes; rinsed with PBS buffer for 3 minutes×3 times.
100 μL CCNK antibody 1:5000 dilution was added, and the cells were incubated at 37° C. for 60 minutes; rinsed with PBS buffer for 3 minutes×3 times.
100 μL reaction enhancer was added, and the cells were incubated at 37° C. for 20 minutes; rinsed with PBS buffer for 3 minutes×3 times.
100 μL enhanced enzyme-labeled goat anti-mouse/rabbit IgG polymer was added, and the cells were incubated at 37° C. for 20 minutes; rinsed with PBS buffer for 3 minutes×3 times.
The cells were placed in 75% ethanol, soaked for 3 minutes×2 times; placed in 95% ethanol, soaked for 3 minutes×2 times; after removing excess liquid, placed in anhydrous ethanol, soaked for 3 minutes×3 times; after removing excess liquid, air dried, observed under a microscope and taken pictures after sealing.

HepG2 cells = experiment: Antiproliferative effect on HepG2 cells; conditions: Homo sapiens
Experimental: as §1, §2, §8, §9, §5, §6

Compound	pIC50 (HT-29 cells)	pIC50 (MDA-MB-231 cells)	pIC50 (Colo-205 cells)	pIC50 (SKOV3 cells)	pIC50 (HepG2 cells)	pIC50 (H82 cells)	pIC50 (H69 cells; Homo sapiens, NCI-H69, 72 h)	pIC50 (N87 cells)	pIC50 (H69 cells)	Cyclin K IHC data of HepG2 cells (Cyclin K)
CCn1cnc2c(NCc3ccc(-c4cccc(CO)n4)cc3)nc(N3CCOCC3)nc21 [UB-001]	≥ 7.00	≥ 7.00	6.52 to 7.00	–	–	6.52 to 7.00	≥ 7.00	≥ 7.00	–	–
CCn1cnc2c(NCc3ccc(-c4cccc(CO)n4)cc3)nc(N3CCN(C)CC3)nc21 [UB-003]	≥ 7.00	≥ 7.00	≥ 7.00	–	–	–	6.52 to 7.00	–	–	–
CC(C)n1cnc2c(NCc3ccc(-c4ccccc4)cc3)nc(N3CCC(N)CC3)nc21 [UB-017, N-([1,1′-biphenyl]-4-ylmethyl)-2-(4-amino-piperidin-1-yl)-9-isopropyl-9H-purin-6-amine]	≥ 7.00	≥ 7.00	6.52 to 7.00	6.52 to 7.00	–	6.52 to 7.00	6.52 to 7.00	≥ 7.00	–	–
CC[C@H](CO)Nc1nc(NCc2ccc(-c3ccccc3)cc2)c2ncn(C(C)C)c2n1 [UB-007, (R)-2-((6-(([1,1′-biphenyl]-4-ylmethyl)amino)-9-isopropyl-9H-purin-2-yl)amino)butan-1-ol]	6.52 to 7.00	< 6.52	< 6.52	< 6.52	–	6.52 to 7.00	< 6.52	6.52 to 7.00	–	–
CCn1cnc2c(NCc3ccc(-c4cccc(CO)n4)cc3)nc(N3CCNCC3)nc21 [UB-002]	≥ 7.00	≥ 7.00	≥ 7.00	–	–	6.52 to 7.00	≥ 7.00	≥ 7.00	–	–
CCn1cnc2c(NCc3ccc(-c4cccc(CO)c4)cc3)nc(N3CCNCC3)nc21 [UB-004]	≥ 7.00	≥ 7.00	6.52 to 7.00	6.52 to 7.00	–	–	–	–	< 6.52	–
CC(C)n1cnc2c(NCc3ccc(-c4ccccc4)cc3)nc(N3CCN[C@H](C)C3)nc21 [UB-027, (R)-N-([1,1′-biphenyl]-4-ylmethyl)-9-isopropyl-2-(3-methylpiperazin-1-yl)-9H-purin-6-amine]	–	–	–	–	> 7.30	–	–	–	–	A (A <= 31 nM)
CC(C)n1cnc2c(NCc3ccc(-c4ccccc4)cc3)nc(N3CCNC[C@H]3C)nc21 [UB-020, (R)-N-([1,1′-biphenyl]-4-ylmethyl)-9-isopropyl-2-(2-methylpiperazin-1-yl)-9H-purin-6-amine]	–	–	–	–	> 7.30	–	–	–	–	B (31 nM < B <= 93 nM)
CC(C)n1cnc2c(NCc3ccc(-c4ccccc4OCCCC#N)cc3)nc(N3CCNCC3)nc21 [UB-051, 4-((4′-(((9-isopropyl-2-(piperazin-1-yl)-9H-purin-6-yl)amino)methyl)-[1,1′-biphenyl]-2-yl)oxy)butyronitrile]	–	–	–	–	6.52 to 7.00	–	–	–	–	D (D > 278 nM)
CC(C)n1cnc2c(NCc3ccc(-c4ccccc4)cc3)nc(OC[C@H]3CNCCN3)nc21 [UB-034, (R)-N-([1,1′-biphenyl]-4-ylmethyl)-9-isopropyl-2-(piperazin-2-ylmethoxy)-9H-purin-6-amine]	–	–	–	–	7.00 to 7.30	–	–	–	–	C (93 nM < C <= 278 nM)

Further lines, with some results ahead:

pIC50 (HT-29 cells)	pIC50 (MDA-MB-231 cells)	pIC50 (Colo-205 cells)	pIC50 (SKOV3 cells)	pIC50 (HepG2 cells)	Compound	pIC50 (H82 cells)	pIC50 (H69 cells; Homo sapiens, NCI-H69, 72 h)	pIC50 (N87 cells)	pIC50 (H69 cells)	Cyclin K IHC data of HepG2 cells (Cyclin K)
≥ 7.00	≥ 7.00	≥ 7.00	6.52 to 7.00	–	CC(C)n1cnc2c(NCc3ccc(-c4ccccc4)cc3)nc(N[C@@H]3CCCNC3)nc21 [UB-014, (R)-N6-([1,1′-biphenyl]-4-ylmethyl)-9-isopropyl-N2-(Piperidin-3-yl)-9H-purin-2,6-diamine]	≥ 7.00	6.52 to 7.00	≥ 7.00	–	–
< 6.52	< 6.52	< 6.52	< 6.52	–	CC(C)n1cnc2c(NCc3ccc(-c4ccccc4)cc3)nc(N3CCOCC3)nc21 [UB-009, N-([1,1′-biphenyl]-4-ylmethyl)-9-isopropyl-2-morpholino-9H-purin-6-amine]	< 6.52	< 6.52	< 6.52	–	–
≥ 7.00	≥ 7.00	≥ 7.00	≥ 7.00	–	CC(C)n1cnc2c(NCc3ccc(-c4ccccc4)cc3)nc(N3CCNCC3)nc21 [UB-010, N-([1,1′-biphenyl]-4-ylmethyl)-9-isopropyl-2-(piperazin-1-yl)-9H-purin-6-amine]	≥ 7.00	6.52 to 7.00	≥ 7.00	–	–
≥ 7.00	≥ 7.00	≥ 7.00	≥ 7.00	–	CCn1cnc2c(NCc3ccc(-c4ccccn4)cc3)nc(N[C@H]3CC[C@H](O)CC3)nc21 [UB-006]	–	< 6.52	–	–	–
≥ 7.00	≥ 7.00	≥ 7.00	6.52 to 7.00	–	CC(C)n1cnc2c(NCc3ccc(-c4ccccc4)cc3)nc(N[C@H]3CCCNC3)nc21 [UB-015, (S)-N6-([1,1′-biphenyl]-4-ylmethyl)-9-isopropyl-N2-(Piperidin-3-yl)-9H-purin-2,6-diamine]	≥ 7.00	6.52 to 7.00	≥ 7.00	–	–
–	–	–	–	> 7.30	CC(C)n1cnc2c(NCc3ccc(-c4ccccc4)cc3)nc(N3CCNC[C@H]3CO)nc21 [UB-022, (S)-(1-(6-(([1,1′-biphenyl]-4-ylmethyl)amino)-9-isopropyl-9H-purin-2-yl)piperazin-2-yl) methanol]	–	–	–	–	A (A <= 31 nM)
–	–	–	–	6.52 to 7.00	CC(C)n1cnc2c(NCc3ccc(-c4ccccc4)c(OCCCC#N)c3)nc(N3CCNCC3)nc21 [UB-063, 4-((4-(((9-isopropyl-2-(piperazin-1-yl)-9H-purin-6-yl)amino)methyl)-[1,1′-biphenyl]-2-yl)oxy)butyronitrile]	–	–	–	–	D (D > 278 nM)
–	–	–	–	6.52 to 7.00	CC(C)n1cnc2c(NCc3ccc(-c4ccccc4OCCCCO)cc3)nc(N3CCNCC3)nc21 [UB-050, 4-((4′-(((9-isopropyl-2-(piperazin-1-yl)-9H-purin-6-yl)amino)methyl)-[1,1′-biphenyl]-2-yl)oxy)butan-1-ol]	–	–	–	–	D (D > 278 nM)
–	–	–	–	> 7.30	CC(C)n1cnc2c(NCc3ccc(-c4ccccc4)cc3)nc(N[C@H]3CC[C@H](N)C3)nc21 [UB-040, N6-([1,1′-biphenyl]-4-yl-methyl)-N2-((1S,3S)-3-aminocyclopentyl)-9-isopropyl-9H-purin-2,6-diamine]	–	–	–	–	B (31 nM < B <= 93 nM)
–	–	–	–	> 7.30	CC(C)n1cnc2c(NCc3ccc(-c4ccccc4)cc3)nc(N[C@H]3C[C@H](N)C3)nc21 [UB-061, N6-([1,1′-biphenyl]-4-yl-methyl)-N2-((1r,3r)-3-aminocyclobutyl)-9-isopropyl-9H-purin-2,6-diamine]	–	–	–	–	B (31 nM < B <= 93 nM)
–	–	–	–	< 6.52	c1ccc(-c2ccc(CNc3nc(N4CCNCC4)nc4c3ncn4-c3ccccc3)cc2)cc1 [UB-053, N-([1,1′-biphenyl]-4-ylmethyl)-9-phenyl-2-(piperazin-1-yl)-9H-purin-6-amine]	–	–	–	–	D (D > 278 nM)
–	–	–	–	7.00 to 7.30	CC(C)n1cnc2c(NCc3ccc(-c4ccccc4)cc3)nc(N3CCNC[C@@H]3CO)nc21 [UB-023, (R)-(1-(6-(([1,1′-biphenyl]-4-ylmethyl)amino)-9-isopropyl-9H-purin-2-yl)piperazin-2-yl) methanol]	–	–	–	–	C (93 nM < C <= 278 nM)
–	–	–	–	> 7.30	CC(C)n1cnc2c(NCc3ccc(-c4ccccc4)c(O)c3)nc(N3CCNCC3)nc21 [UB-042]	–	–	–	–	B (31 nM < B <= 93 nM)
